Laboratory results from ChEMBL document CHEMBL1201862, “PubChem BioAssay data set” (2004).
Calls of active or inactive are those of the source.

Assays:
[1] = Trypanosoma cruzi growth suppression in host cells – NIH3T3 host cells, beta-gal luminescence, confirmation (AID 2044); format: functional, cell-based;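 further: intracellular parasites grown in NIH/3T3 mouse fibroblasts as host cells; luminescent beta-galactosidase reporter signal from transgenic T. cruzi replicating inside host cells; inhibitors lower the luminescence signal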
[2] = NIH3T3 cell viability loss – ATP luminescence, mouse fibroblasts, counter-screen, dose response (AID 2010); format: functional, cell-based;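 further: cells exposed to compound for about 90 hours before reading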
X-box-binding protein 1 = X-box-binding protein 1 (Homo sapiens, UniProt P17861); format: functional, Cricetulus griseus;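 further: confirmatory dose-response counter-screen serving a CHOP assay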
[3] = viability loss in HeLa cells – cytotoxicity control for MgcRacGAP inhibitor project, dose response (AID 624300); format: functional
[4] = molecular target: Sphingosine 1-phosphate receptor 1 (Homo sapiens, UniProt P21453); format: functional;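 further: Tango beta-arrestin reporter U2OS cells stimulated with S1P near its EC80; inhibitor potency meaning antagonism of receptor activation by the natural agonist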
HEK293 [5] = assay: cells; format: functional, cell-based; conditions: Homo sapiens
MDCK [6] = assay: antiviral activity against H1N1 influenza, dose response, cell-based, strain KY136 (AID 540257); format: functional; conditions: Canis lupus familiaris
[7] = molecular target: T1, Rac GTPase-activating protein 1 (Homo sapiens, UniProt Q9H0H5); assay: blockers of MgcRacGAP-driven Rac1 GTP hydrolysis – biochemical, ADP Hunter fluorescence, primary and confirmatory, confirmation (AID 624330); format: functional
T1 sequence (Q9H0H5 whole entry): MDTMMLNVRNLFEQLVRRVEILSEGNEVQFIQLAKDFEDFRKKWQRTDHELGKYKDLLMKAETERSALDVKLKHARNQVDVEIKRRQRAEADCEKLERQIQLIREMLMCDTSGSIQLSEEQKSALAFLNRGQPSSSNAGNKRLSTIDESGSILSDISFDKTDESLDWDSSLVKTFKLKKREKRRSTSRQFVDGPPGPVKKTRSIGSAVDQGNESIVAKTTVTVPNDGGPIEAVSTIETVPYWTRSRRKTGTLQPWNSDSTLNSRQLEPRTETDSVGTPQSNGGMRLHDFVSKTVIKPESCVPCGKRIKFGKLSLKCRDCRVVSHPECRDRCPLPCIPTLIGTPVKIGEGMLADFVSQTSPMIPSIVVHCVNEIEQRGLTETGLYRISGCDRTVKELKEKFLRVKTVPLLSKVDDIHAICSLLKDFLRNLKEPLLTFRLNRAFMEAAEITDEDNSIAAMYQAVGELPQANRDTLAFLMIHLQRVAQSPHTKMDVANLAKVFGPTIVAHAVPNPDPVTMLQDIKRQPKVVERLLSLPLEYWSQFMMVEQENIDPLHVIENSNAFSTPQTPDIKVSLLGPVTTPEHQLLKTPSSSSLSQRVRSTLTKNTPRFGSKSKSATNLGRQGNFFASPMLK

HEK293 [8] = assay: NOD2 signaling inhibitors in MDP-stimulated cells, cell-based, uHTS, luminescence (AID 2001); format: functional; conditions: Homo sapiens
MDCK [9] = assay: MDCK cell cytotoxicity, dose response, cytotoxicity control (AID 540296); format: functional; conditions: Canis lupus familiaris
HeLa = assay: Cytotoxicity counterscreen assay for transcriptional activators of heat shock protein 70 (Hsp70). [Related pubchem assays: 1203, 1252 ]; format: functional; conditions: Homo sapiens;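 further: cells exposed to compound for 16 hours before readout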
HEK293 [10] = assay: inhibition of NOD1-driven NF-kB reporter – cell-based, luminescence, uHTS, primary screen (AID 1578); format: functional; conditions: Homo sapiens
Nonstructural protein 1 = Nonstructural protein 1 (Influenza A virus, UniProt Q194T2); format: functional, Influenza A virus (A/California/07/2009(H1N1))
Vero = assay: Vero E6 cell cytotoxicity, dose response, cytotoxicity control (AID 540298); format: functional; conditions: Chlorocebus sabaeus
[11] = molecular target: G-protein coupled receptor 55 (Homo sapiens, UniProt Q9Y2T6); assay: selective activators of receptor GPR55 – imaging, U2OS cells, beta-arrestin-GFP redistribution, primary screen (AID 1961); format: functional
[12] = molecular target: Neurotensin receptor type 1 (Homo sapiens, UniProt P30989); format: functional;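 further: Image-based confirmatory dose-response assay measuring agonist activity at NTR1; NTR1-expressing U2OS osteosarcoma cells imaged for beta-arrestin GFP spot formation; agonist potency where compounds increase beta-arrestin recruitment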
HEK293 [13] = assay: cells; format: functional, cell-based; conditions: Homo sapiens; remark: listed apart in the source
[14] = molecular target: T2, Sphingosine 1-phosphate receptor 4 (Homo sapiens, UniProt O95977); assay: Fluorescence dose response cell-based high throughput screening assay for antagonists of the Sphingosine 1-Phosphate Receptor 4 (S1P4). [Related pubchem assays: 1524 (Confirmation in triplicates.), 1510 (Primary screen.)]; format: functional
T2 sequence (O95977 whole entry): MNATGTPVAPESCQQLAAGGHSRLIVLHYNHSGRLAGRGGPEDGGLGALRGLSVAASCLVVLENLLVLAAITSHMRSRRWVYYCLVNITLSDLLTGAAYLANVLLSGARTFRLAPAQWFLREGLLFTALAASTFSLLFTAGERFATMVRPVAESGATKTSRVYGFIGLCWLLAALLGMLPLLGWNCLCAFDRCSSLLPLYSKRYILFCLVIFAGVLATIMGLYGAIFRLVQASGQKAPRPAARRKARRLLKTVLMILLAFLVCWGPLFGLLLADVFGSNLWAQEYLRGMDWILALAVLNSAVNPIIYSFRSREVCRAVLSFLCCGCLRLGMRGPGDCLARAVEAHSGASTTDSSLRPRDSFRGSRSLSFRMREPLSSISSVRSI

[15] = Luminescence Cell-Based Dose Response HTS to Identify Inhibitors of 5'UTR Stem-Loop Driven Prion Protein mRNA Translation in H4 Neuroglioblastoma Cells. [Related pubchem assays: 1827 (Project Summary), 1813 (Primary HTS)]; format: functional
[16] = alpha-synuclein stem-loop translation blockers – luminescence, H4 neuroglioblastoma cells, dose confirmation, confirmation (AID 2454); format: functional, cell-based;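 further: H4 neuroglioblastoma cells carrying an alpha-synuclein 5'UTR luciferase reporter; potency for inhibition of the luciferase signal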
[17] = luciferase reporter signal reduction – luminescence, H4-C neuroglioblastoma cells, dose response (AID 2458); format: functional, cell-based;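 further: H4 neuroglioblastoma cells stably carrying a luciferase reporter gene fusion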
[18] = DRD fibroblast viability loss – cell-based, non-viral oncogenic, luminescence, dose response (AID 1934); format: functional; conditions: Homo sapiens
BJ [19] = assay: BJ-TERT-LT-ST fibroblast viability loss – cell-based, RAS-independent, luminescence, dose response (AID 1935); format: functional; conditions: Homo sapiens;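 further: BJ fibroblasts immortalized with TERT plus LT and ST oncogenes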
BJ [20] = assay: BJ-TERT fibroblast viability loss – cell-based, RAS-independent, luminescence, dose response (AID 1933); format: functional; conditions: Homo sapiens
BJ [21] = assay: cells; format: functional, cell-based; conditions: Homo sapiens
cells = format: functional, cell-based
[22] = HEK-293T viability loss after treatment – luminescence, T-cell screen hits, cytotoxicity control for TCR NF-kB inhibitor project, dose response (AID 489026); format: functional, cell-based;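 further: cells exposed to compound about 14 hours before the viability readout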
[23] = inhibition of ADAM10 peptide cleavage – biochemical, FRET peptide substrate, recombinant human ADAM10, selectivity assay for ADAM17 exosite inhibitor project, dose response (AID 743259);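 further: ADAM10 enzyme cleaving a FRET peptide substrate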
[24] = alpha-synuclein stem-loop luciferase translation blockers – H4 neuroglioma cells, luminescence, confirmation (AID 1988); format: functional, cell-based
[25] = molecular target: Disintegrin and metalloproteinase domain-containing protein 17 (Homo sapiens, UniProt P78536); assay: exosite inhibitors of ADAM17, dose response, biochemical (AID 743260)
[26] = molecular target: Acyl-homoserine lactone acylase PvdQ (Pseudomonas aeruginosa (strain LESB58), UniProt Q9I194); assay: PvdQ acylase enzyme activity blockers – biochemical, fluorescence, plate reader and imaging, cherry-picks, dose response (AID 493231)
[27] = molecular target: Scavenger receptor class B member 1 (Mus musculus, UniProt Q61009); assay: mouse SR-BI DiI-HDL uptake blockers – ldlA[mSR-BI] cells, fluorescence, cherry pick, dose response (AID 493194); format: functional, cell-based;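 further: cellular uptake of fluorescent DiI-labeled HDL measured as cell fluorescence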
[28] = molecular target: T3, Eukaryotic translation initiation factor 2-alpha kinase 3 (Homo sapiens, UniProt Q9NZJ5); assay: Counterscreen assay for PERK inhibitors: Dose response cell-based high throughput screening assay to measure inhibition of PERK at 6 hours. [Related pubchem assays: 1522, 1416 ]; format: functional
[29] = molecular target: T3, Eukaryotic translation initiation factor 2-alpha kinase 3; assay: Dose response cell-based high-throughput screening assay to measure PERK inhibition. [Related pubchem assays: 1416 ]; format: functional
[30] = molecular target: Dual specificity protein phosphatase 3 (Homo sapiens, UniProt P51452); assay: inhibition constants for human DUSP3 – biochemical, colorimetric, SAR follow-up (AID 2004)

Compound: COC(=O)c1ccc2c(c1)C(C)(C)C(/C=C/c1ccccc1O)=[N+]2C.[I-]
- EC50 [1]: 0.584 µM (active)
- EC50 [2]: 4.69 µM (active)
- Absolute IC50 (XBP1) (X-box-binding protein 1): 10 µM
- CC50 [3]: 30.9 µM (active)
- IC50 [4]: 4.76 µM (active)
- IC50 (HEK293 [5]): > 20 µM (inactive)
- IC50 (MDCK [6]): 8.58 µM (active)
- IC50 [7]: 21 µM (active)
- IC50 (HEK293 [8]): 11.7 µM (inactive)
- CC50 (MDCK [9]): 5.8 µM (active)
- CC50 (HeLa): 8.49 µM (active)
- EC50 (HEK293 [10]): 7.83 µM (active)
- IC50 (Nonstructural protein 1): 22.7 µM (active)
- CC50 (Vero): 4.79 µM (active)
- EC50 [11]: 2.75 µM (active)
- EC50 [12]: 18.3 µM (active)
- IC50 (HEK293 [13]): 5.74 µM (active)
- IC50 [14]: 0.798 µM (active)

Compound: Cc1cc(C)c(S(=O)(=O)Nc2ccc3c4c(cccc24)CC3)c(C)c1
- EC50 [15]: 9.52 µM (active)
- EC50 [16]: 1.2 µM (active)
- EC50 [17]: 1.06 µM (active)
- EC50 [18]: 0.383 µM (inconclusive)
- EC50 (BJ [19]): 0.246 µM (inconclusive)
- EC50 (BJ [20]): 0.288 µM (active)
- EC50 (BJ [21]): 2.1 µM (inconclusive)
- EC50 (cells): 2.97 µM (active)
- IC50 [22]: > 80 µM (inactive)
- IC50 [23]: > 69.5 µM (inactive)
- EC50 [24]: < 0.1 µM (active)
- IC50 [25]: > 69.5 µM (inactive)

Compound: N#CC(c1cccc(Cl)c1)c1ncc(C(F)(F)F)cc1Cl (stereo not given)
- AC50 [26]: 2.74 µM (active)

Compound: COc1cc(NC(=O)c2cc(-c3ccccc3Cl)on2)cc(OC)c1OC
- AC50 [27]: 32 µM (active)

Compound: CCS(=O)(=O)N1CCC(C(=O)NCc2ccc(F)cc2)CC1
- EC50 [28]: > 55.7 µM (not active)
- EC50 [29]: > 55.7 µM (not active)

Compound: O=C1NC(=S)N(c2ccc(Cl)cc2)C(=O)/C1=C/c1ccc(-c2ccccc2C(=O)O)o1
- Ki [30]: 36.6 µM (inactive)
